Results: patent publication US6531453B1, “NKT cell activators containing α-glycosylceramides” (Kirin Beera Kabushiki Kaisha, priority 1997, dated 2003)

Experiments:
[1] = test system: spleen cells of RAG-1KO/Vα14tg/Vβ8.2tg mice (NKT cells); assay: Stimulation of NKT cell proliferation, [3H]thymidine incorporation in spleen cells; type: cell-based, mouse; settings: 2 days incubation
Experimental: Stimulation of NKT cell proliferation by compounds having an α-glycosylceramide structure was studied using spleen cells of RAG-1KO/Vα14tg/Vβ8.2tg mice shown in Pharmacological Test Example 1.
Spleen cells were prepared from the spleen of RAG-1KO/Vα14tg/Vβ8.2tg mice by conventional methods. These spleen cells were suspended at 2×10^6 cells/ml in an RPMI 1640 medium supplemented with 10% FCS, and 100 μl each of the suspension were plated into wells of 96-well round-bottomed plates. Ten different kinds of compounds having an α-glycosylceramide structure shown in FIG. 12 were added to the wells of the plates at a final concentration of 1, 10 or 100 ng/ml, and the plates were incubated for 2 days. Sixteen hours after the addition of [^3H] thymidine (0.5 μCi/well), the cells were harvested. The amount of [^3H] thymidine incorporated into the cells was measured by a liquid scintillation counter.

Vα24+ NKT cells = assay: Stimulation of Vα24+ NKT cell proliferation, autologous mixed leukocyte reaction with treated antigen-presenting cells; type: cell-based, human; settings: antigen-presenting cells treated with 100 ng/ml, FIG. 9
Experimental: Peripheral blood mononuclear cells of a normal human were cultured for 4 days in an AIM medium supplemented with 10% FCS with the addition of GM-CSF (400 U/ml), IL-4 (200 U/ml) and KRN 7000 (100 ng/ml) to prepare antigen-presenting cells.
An autologous mixed leukocyte reaction (MLR) was performed using these antigen-presenting cells as stimulator cells and autologous peripheral blood mononuclear cells as responder cells. After incubation for 10 days, IL-2 (5 U/ml) was added, incubation was continued for another 4 days, and the cells were harvested. Next, CD4, CD8 double negative cells were recovered from these harvested cells and subjected to the phenotype analysis. The phenotypic analysis was expressed by fluorescence intensity of labeled antibodies against cells having various phenotypes.
The cells were cultured using IL-2 (5 U/ml) to stimulate the proliferation of Vα24^+ NKT cells, which were used as responder cells in the following autologous mixed leukocyte reaction. Autologous peripheral blood mononuclear cells were cultured for 4 days with the addition of GM-CSF +IL-4 and 100 ng/ml of KRN 7000, AGL-583 (β-galactosylceramide, β-GalCer) or 0.1% DMSO (vehicle) to prepare antigen-presenting cells. An autologous mixed leukocyte reaction was carried out using these antigen-presenting cells as stimulator cells. […]

mice ((CBAxDBA/2)F1) = assay: Induction of abortion in (CBAxDBA/2)F1 mice; type: in vivo, mouse; settings: same amount of IL-12, same manner
Experimental: C57BL/6 mice (Japan SLC) were used for the following experiment. The day when a vaginal plug was observed was defined as day 0. Pregnant mice were divided into 2 groups (6 mice per group), i.e., one group to which 150 μg/kg of KRN 7000 were intravenously administered on days 7, 8 and 9, and another to which PBS (phosphate-buffered saline) was administered in the same way. On day 12, the uterus was removed to observe the state of the embryo.
IL-12 is also known to activate NKT cells. When the same amount of IL-12 was administered to mice ((CBAxDBA/2)F1) in the same manner, the resulting abortion rate was 34%.

[2] = test system: 4% DSS-induced mouse colitis (CDF1 mice); assay: Suppression of 4% DSS-induced mouse colitis; type: in vivo; settings: KRN 7000 100 μg/kg i.p. days 1, 5, 9, IL-12 1 μg/mouse i.p. days 1, 3, 5, 7, 9
Experimental: Ten animals per group of CDF1 mice (6 weeks of age, females) (Japan SLC Inc.) were used for the following experiment. Day 0 was defined as the day when a 4% DSS solution (4% (w/v) dextran sodium sulfate (DSS) dissolved in water) was first provided as drinking water. The animals were divided into 3 groups, i.e., a group to which 100 μg/kg of KRN 7000 were intraperitoneally administered on days 1, 5, and 9, a group to which 1 μg/mouse of IL-12 was intraperitoneally administered on days 1, 3, 5, 7 and 9, and an untreated (control) group. Body weight was measured and survival or death of the animals were observed daily. Changes in body weight and survival rate are shown in FIG. 5A and 5B, respectively.

Molecule | [3H] Thymidine incorporation (cpm) ([1]; 1 ng/ml, vehicle 2090) | [3H] Thymidine incorporation (cpm) ([1]; 10 ng/ml, vehicle 2056) | [3H] Thymidine incorporation (cpm) ([1]; 100 ng/ml, vehicle 2014) | effect of treated antigen presenting cells on Vα24+ NKT cell proliferation ([3H]thymidine uptake) (Vα24+ NKT cells) | abortion rate (mice ((CBAxDBA/2)F1)) [%] | time of weight loss as compared with the control group ([2]; FIG. 5A) | survival period as compared with the control group ([2]; FIG. 5B)
CCCCCCCCCCCCCCC[C@@H](O)[C@H](CO[C@H]1OC[C@H](O)[C@H](O)[C@H]1O)NC(=O)CCCCCCCCCCCCC [AGL577, (2S,3R)-1-(β-L-arabinopyranosyloxy)-2-tetradecanoyl amino-3-octadecanol] | 2083 | 7792 | 49701 | – | – | – | –
CCCCCCCCCCCCCCC[C@@H](O)[C@H](CO[C@H]1O[C@H](CO)[C@H](O)[C@H](O)[C@H]1O)NC(=O)CCCCCCCCCCCCC [AGL517, (2S,3R)-1-(α-D-galactopyranosyloxy)-2-tetradecanoyl amino-3-octadecanol] | 3176 | 15583 | 83169 | – | – | – | –
CCCCCCCCCCCCCCC[C@@H](O)[C@H](CO[C@H]1O[C@H](CO)[C@@H](O)[C@H](O)[C@H]1O)NC(=O)CCCCCCCCCCCCC [AGL563, (2S,3R)-1-(α-D-glucopyranosyloxy)-2-tetradecanoyl amino-3-octadecanol] | 2063 | 3773 | 13131 | – | – | – | –
CCCCCCCCCCCCCCCCCCCCCCCCCC(=O)N[C@@H](CO[C@H]1O[C@H](CO[C@H]2O[C@H](CO)[C@H](O)[C@H](O)[C@H]2O)[C@H](O)[C@H](O)[C@H]1O)[C@H](O)[C@H](O)CCCCCCCCCCCCCC [AGL586, O-α-D-galactopyranosyl-(1→6)-O-α-D-galactopyranosyl-(1→1)-(2S,3S,4R)-2-amino-N-hexacosanoyl-1,3,4-octa decanetriol] | 5137 | 39750 | 102425 | – | – | – | –
β-galactosylceramide [reference compound] | – | – | – | no effect | – | – | –
CCCCCCCCCCCCCCCCCCCCCC[C@@H](O)C(=O)N[C@@H](CO[C@H]1O[C@H](CO)[C@H](O)[C@H](O[C@@H]2O[C@@H]([C@H](O)CO)[C@H](O)[C@H]2O)[C@H]1O)[C@H](O)[C@H](O)CCCCCCCCCCCCCC [719-7, O-β-D-galactofuranosyl-(1→3)-O-α-D-galactopyranosyl-(1→1)-(2S,3S,4R)-2-amino-N-[(R)-2-hydroxytetracosanoyl]-1,3,4-octadecanetriol] | 5287 | 30179 | 60528 | – | – | – | –
CCCCCCCCCCCCCCCCCCCCCCCCCC(=O)N[C@@H](CO[C@H]1O[C@H](CO[C@H]2O[C@H](CO)[C@H](O)[C@H](O)[C@H]2O)[C@@H](O)[C@H](O)[C@H]1O)[C@H](O)[C@H](O)CCCCCCCCCCCCCC [AGL584, O-α-D-galactopyranosyl-(1→6)-O-α-D-glucopyranosyl-(1→1)-(2S,3S,4R)-2-amino-N-hexacosanoyl-1,3,4-octadecane triol] | 29331 | 65084 | 96783 | – | – | – | –
CCCCCCCCCCCCCCCCCCCCCC[C@@H](O)C(=O)N[C@@H](CO[C@H]1O[C@H](CO)[C@H](O)[C@H](O[C@H]2O[C@H](CO)[C@H](O)[C@H](O)[C@H]2NC(C)=O)[C@H]1O[C@H]1O[C@H](CO)[C@@H](O)[C@H](O)[C@H]1O)[C@H](O)[C@H](O)CCCCCCCCCCCCCC [STL-8] | 4761 | 26474 | 47141 | – | – | – | –
CCCCCCCCCCCCCCC[C@@H](O)[C@H](CO[C@H]1O[C@H](C)[C@H](O)[C@H](O)[C@H]1O)NC(=O)CCCCCCCCCCCCC [AGL571, (2S,3R)-1-(6′-deoxy-α-D-galactopyranosyloxy)-2-tetra decanoylamino-3-octadecanol] | 3969 | 17848 | 118092 | – | – | – | –
CCCCCCCCCCCCCCCCCCCCCC[C@@H](O)C(=O)N[C@@H](CO[C@H]1O[C@H](CO)[C@H](O)[C@H](O)[C@H]1O[C@H]1O[C@H](CO)[C@H](O)[C@H](O)[C@H]1O)[C@H](O)[C@H](O)CCCCCCCCCCCCCC [S1140B-9, O-α-D-galactopyranosyl-(1→2)-O-α-D-galactopyranosyl-(1→1)-(2S,3S,4R)-2-amino-N-[(R)-2-hydroxytetracosanoyl]-1,3,4-octadecanetriol] | 3387 | 10265 | 49520 | – | – | – | –
IL-12: interleukin 12 (IL-12), known to activate NKT cells (protein, UniProt P29459 23-219; P29460 23-328, looked up) Interleukin-12 subunit alpha: RNLPVATPDPGMFPCLHHSQNLLRAVSNMLQKARQTLEFYPCTSEEIDHEDITKDKTSTVEACLPLELTKNESCLNSRETSFITNGSCLASRKTSFMMALCLSSIYEDLKMYQVEFKTMNAKLLMDPKRQIFLDQNMLAVIDELMQALNFNSETVPQKSSLEEPDFYKTKIKLCILLHAFRIRAVTIDRVMSYLNAS Interleukin-12 subunit beta: IWELKKDVYVVELDWYPDAPGEMVVLTCDTPEEDGITWTLDQSSEVLGSGKTLTIQVKEFGDAGQYTCHKGGEVLSHSLLLLHKKEDGIWSTDILKDQKEPKNKTFLRCEAKNYSGRFTCWWLTTISTDLTFSVKSSRGSSDPQGVTCGAATLSAERVRGDNKEYEYSVECQEDSACPAAEESLPIEVMVDAVHKLKYENYTSSFFIRDIIKPDPPKNLQLKPLKNSRQVEVSWEYPDTWSTPHSYFSLTFCVQVQGKSKREKKDRVFTDKTSATVICRKNASISVRAQDRYYSSSWSEWASVPCS | – | – | – | – | 34 | at an extremely early period | significantly shorter
